The subject of test [1] is Recombinant B. malayi TrxR (rBmTrxR). Put plainly: Recombinant B. malayi TrxR (rBmTrxR) DTNB inhibition assay. It counts as biochemical, Brugia malayi. As to the method: Recombinant 6-His-tagged B. malayi TrxR (rBmTrxR) was produced in E. coli BL21(DE3) in the presence of pSUABC [29] in LB medium supplemented with 20 μg/mL riboflavin under conditions for optimal selenoprotein expression. An overnight starter culture in LB with 50 μg/mL ampicillin and 34 μg/mL chloramphenicol was diluted (1:100) into in LB medium with the same antibiotics. When the culture reached an OD600 = 0.8, the medium was supplemented with 5 μM sodium selenite and 100 μg/mL L-cysteine. When the culture OD600 = 2, riboflavin (20 μg/mL) was added and protein expression was induced by the addition of isopropyl β-D-1-thiogalactopyranoside (50 μM). At this point the cultures were shifted to 24°C and incubated for 24 hr. Cells were collected by centrifugation, lysed by alternative freeze-thaw cycles, and resuspended in lysis buffer (50 mM potassium phosphate, pH 7.8, 500 mM NaCl, 30 mM imidazole, 1 mg/mL lysozyme, 1 mM phenylmethanesulfonylfluoride) supplemented with 100 μM flavin adenine dinucleotide. The sample was sonicated and cellular debris pelleted at 25,000 x g at 4°C for 25 min. The supernatant was collected and filtered through a 0.45 μm filter before purification by immobilized metal ion affinity chromatography using a His-Trap FF column (GE Healthcare). The column was washed with 10 column volumes binding buffer (50 mM potassium phosphate, pH 7.8, 500 mM NaCl, 30 mM imidazole) and then with 5 column volumes of buffer A (binding buffer with 100 mM imidazole). TrxR protein was eluted in 3 × 1 mL buffer B (binding buffer with 500 mM imidazole).Protein was concentrated (Amicon Ultra-4 10K) and purity was verified by SDS-PAGE and quantified by absorbance at 280 nm (ε = 69.76 mM^-1 cm^-1).
rBmTrxR activity was assayed in 0.1 M potassium phosphate (pH 7.2) with 10 mM EDTA and 25 nM rBmTrxR. rBmTxrR was pre-incubated for 20 min with NADPH (100 μM) and auranofin (ICN Pharmaceuticals, now Valeant Pharmaceuticals, Bridgewater, NJ) or aurothioglucose (USP Reference Standards, Rockville, MD) in DMSO in 100 μL, followed by addition of an equal volume of buffer with NADPH (200 μM) and DTNB (6 mM) with reaction progress monitored at λ = 412 nm for TNB production. The concentration of DMSO in all reactions was 3.5%.

Test [2] deals with adult female B. pahangi. Put plainly: Transmission electron microscopy of treated adult female B. pahangi. To be noted: flubendazole 10 μM overnight, positive control. It counts as cell-based, Brugia pahangi. As to the method:
Adult female B. pahangi worms were incubated with either 1 μM, 0.3 μM, or 0.1 μM auranofin, 10 μM flubendazole (as a positive control), or 1% DMSO overnight, then cut into 3 segments separating the anterior, middle and posterior sections. The middle sections were further cut into 1 mm sized pieces in fixative (2.5% glutaraldehyde and 2% paraformaldehyde in 0.1 M sodium cacodylate buffer, pH 7.3–7.4) and stored at 4°C. Middle sections were subsequently treated with 1% tannic acid for 1 hour, followed by three buffer washes before post fixation staining with 2% osmium tetroxide for 1 hour. The samples were washed three times in buffer before dehydration in an ethanol series. Worm sections were then infiltrated with propylene oxide, embedded in epon 812 resin and polymerized in a vacuum oven at 60°C overnight. Ultrathin sections were cut using an RMC MTX ultramicrotome with a Diatome diamond knife followed by post staining of the grids with saturated ethanolic uranyl acetate and Reynolds lead citrate. Samples were imaged on a FEI Tecnai 12 spirit TEM operated at 80 kV. A similar procedure was performed on adult female O. ochengi worm masses that were cultured for 7 days with 10 μM auranofin before fixation of cut pieces of the adult female mass. Untreated adult female masses cultured for 7 days and fixed by the same procedure served as the control.

In general, IC50 refers to the concentration at which inhibition is half-maximal.

Entries after “also recorded” stand apart in the source; their conditions may differ.

Consider aurothioglucose, for which the “mode of inhibition of rBmTrxR” value in test [1] is recorded as “irreversibly inhibit rBmTrxR at a one-to-one molar ratio”. Moreover, the IC50 in test [1] (25 nM rBmTrxR, 20 min pre-incubation with NADPH, DTNB substrate) worked out at 9 nM.

In the case of `COC(=O)Nc1nc2cc(C(=O)c3ccc(F)cc3)ccc2[nH]1` [flubendazole], in test [2], the “ultrastructure (TEM) of adult female B. pahangi” value was “normal Wolbachia with very few mitochondria containing dark bodies; also recorded: did not cause vacuolization but only minor changes to the mitochondria”.
